Test results published in PubChem BioAssay (NCI).
Where “and” joins values, the source holds several entries; their conditions need not be identical. Identical values can stand only once.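 1) Cells in 96-well plates. 2) Compound, 48 h, 5 concentrations. 3) Linear interpolation between surrounding doses. 4) Unreached endpoint = highest concentration. At the GI50, growth is halved. TGI is the concentration that stops growth completely.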 Square brackets hold non-standard residues; d marks the D form. Peptide text beside a SMILES is read from it. Phe(4-NO2) = N[CH](Cc1ccc([N+](=O)[O-])cc1)C(=O)O

Experiments:
Test in all cases: NCI-60 cell line screen, 48 h
[1] = tested on: SF-295 CNS
[2] = tested on: HCT-15 colon
[3] = tested on: HT29 colon
[4] = tested on: TK-10 renal
[5] = tested on: SR leukemia
[6] = tested on: OVCAR-5 ovarian
[7] = tested on: HOP-62 NSCLC
[8] = tested on: HL-60(TB) leukemia
[9] = tested on: SK-MEL-2 melanoma
[10] = tested on: M14 melanoma
[11] = tested on: K-562 leukemia
[12] = tested on: EKVX NSCLC
[13] = tested on: MDA-N

| Structure (SMILES) | TGI [1] | TGI [2] | TGI [3] | TGI [4] | TGI [5] | TGI [6] | TGI [7] | TGI [8] | TGI [9] | TGI [10] | TGI [11] | TGI [12] | TGI [13] | GI50 [12] |
| --- | --- | --- | --- | --- | --- | --- | --- | --- | --- | --- | --- | --- | --- | --- |
| CCCCC(N)CSSCC(N)CCCC (stereo not drawn) | > 100 µM | 63.2 µM | 50.8 µM | > 100 µM | 45.7 µM | 38.1 µM | 95.4 µM | 40.1 µM | 36.7 µM | 38.2 µM | 57 µM | 61.8 µM | – | – |
| CC(C)C1=CC23CCC4C(C)(C(=O)O)CCCC4(C)C2CC1C1C(=O)N(c2cccc(N4C(=O)C5C6CC7C8(C)CCCC(C)(C(=O)O)C8CCC7(C=C6C(C)C)C5C4=O)c2)C(=O)C13 (stereo not drawn) | – | 26.9 µM | 10.8 µM | 30.4 µM | 45 µM | 20 µM | 25.2 µM | 30.7 µM | 29.9 µM | 25.5 µM | 96.1 µM | 24.4 µM | – | – |
| COc1ccc(NS(=O)(=O)c2ccc(N=C3C=C(Nc4ccc(S(=O)(=O)Nc5ccc(OC)nn5)cc4)C(=O)c4ccccc43)cc2)nn1 | 32.1 µM | 32.4 µM | 36.2 µM | 40 µM | > 100 µM | 34.1 µM | – | > 100 µM | 33.2 µM | 31.3 µM | > 100 µM | 63.1 µM | – | – |
| C=CC(C)(C)n1cc(C2=C(O)C(=O)C(c3c(CC=C(C)C)[nH]c4ccccc34)=C(O)C2=O)c2ccccc21 | 4.1 µM | 7.6 µM | 7.36 µM | – | – | 10.1 µM | 2.63 µM | 4.69 µM | 3.41 µM | 4.24 µM | 5.02 µM | 6.01 µM | 4.08 µM | – |
| C=C(C)C1CC2=C(O1)C(=O)c1cccc(O)c1C2=O (stereo not drawn) | 2.73 µM | 4.36 µM | 3.13 µM | 5.37 µM | – | 3.01 µM | 2.94 µM | – | 2.68 µM | 2.43 µM | 0.689 µM | 2.52 µM | 0.132 µM | – |
| OC[C@@H](O)[C@H](O)[C@@H](O)/C=N/Nc1ccc(Cl)nn1 | > 100 µM | > 100 µM | > 100 µM | > 100 µM | – | > 100 µM | > 100 µM | > 100 µM | > 100 µM | > 100 µM | – | > 100 µM | > 100 µM | – |
| CC(C)C[C@H](NC(=O)CCc1cccc2ccccc12)B(O)O | 20.2 µM | 9.01 µM | 6.27 µM | 12.4 µM | 2.2 µM | 6.72 µM | 14.3 µM | – | 6.74 µM | 3.72 µM | 21.4 µM | 64.2 µM | – | – |
| O=C1c2cc([N+](=O)[O-])sc2C(=O)c2cc([N+](=O)[O-])sc21 | 23.9 µM | 3.55 µM | 11.5 µM | 13 µM | 6 µM | 15.5 µM | 15.3 µM | – | 21.4 µM | 9.25 µM | – | 7.78 µM | 4.72 µM | – |
| O=C(N[C@@H](Cc1ccccc1)B(O)O)[C@H](Cc1cccc2ccccc12)NC(=O)N1CCOCC1 | 0.0304 µM and 0.0239 µM | 0.61 µM and 0.405 µM | 0.0105 µM and 0.0106 µM | 0.154 µM and 0.413 µM | 0.0126 µM | 0.0155 µM | 0.0316 µM and 0.0488 µM | – | – | 0.00405 µM | 0.0852 µM | 0.923 µM and 3.66 µM | – | 129 nM |
| O=c1oc2ccccc2n1CCCn1c(=O)oc2ccccc21 | > 100 µM | > 100 µM | > 100 µM | > 100 µM | > 100 µM | > 100 µM | > 100 µM | > 100 µM | > 100 µM | > 100 µM | > 100 µM | > 100 µM | – | – |
| C/C(=N\Nc1nc2ccccc2o1)c1cc2ccccc2cn1 | 4.56 µM | > 20.3 µM | – | – | – | 16.4 µM | 15.6 µM | – | 12.2 µM | – | – | 1.25 µM | 35.3 µM | – |
| CN=C(N)NC | > 100 µM | > 100 µM | > 100 µM | > 100 µM | > 100 µM | > 100 µM | > 100 µM | > 100 µM | > 100 µM | > 100 µM | > 100 µM | > 100 µM | – | – |
| CCCCN1CCC(O)(c2cc(C(=O)O)[nH]c2-c2cc(C)no2)C1=O (stereo not drawn) | > 100 µM | > 100 µM | > 100 µM | > 100 µM | – | > 100 µM | > 100 µM | – | > 100 µM | > 100 µM | > 100 µM | > 100 µM | > 100 µM | – |
| CCCCSC1=N/C(=C\c2ccc(N(C)C)cc2)C(Cl)=N1 | > 100 µM | > 100 µM | > 100 µM | > 100 µM | – | > 100 µM | > 100 µM | – | > 100 µM | > 100 µM | > 100 µM | > 100 µM | > 100 µM | – |
| O=C1/C(=C\c2cccc(Oc3ccccc3)c2)SC(c2ccccc2)N1c1cccc(Cl)c1 (stereo not drawn) | > 100 µM | > 100 µM | > 100 µM | > 100 µM | – | > 100 µM | > 100 µM | – | > 100 µM | > 100 µM | > 100 µM | > 100 µM | > 100 µM | – |
| O=P(O)(O)CC1OC(CO)C(O)C1O (stereo not drawn) | > 100 µM | > 100 µM | > 100 µM | > 100 µM | – | > 100 µM | – | > 100 µM | > 100 µM | > 100 µM | > 100 µM | > 100 µM | > 100 µM | – |
| CCOc1ncnc2ccc(Cl)c(I)c12 | > 100 µM | > 100 µM | > 100 µM | > 100 µM | > 100 µM | > 100 µM | > 100 µM | > 100 µM | > 100 µM | > 100 µM | > 100 µM | > 100 µM | – | – |
| Nc1ncnc2c1cnn2COCC(O)CO (stereo not drawn) | > 100 µM | > 100 µM | > 100 µM | > 100 µM | > 100 µM | > 100 µM | > 100 µM | – | > 100 µM | > 100 µM | > 100 µM | > 100 µM | > 100 µM | – |
| COC(=O)CCC(NC(=O)C(CCC(=O)OC)NC(=O)C(CCC(=O)OC)NC(=O)C(CCC(=O)OC)NC(=O)C(CCC(=O)OC)NC(=O)C(Cc1ccc([N+](=O)[O-])cc1)NC(=O)C(CCC(=O)OC)NC(=O)C(CCC(=O)OC)NC(=O)C(CCC(=O)OC)NC(=O)C(CCC(=O)OC)NC(=O)C(CCC(=O)OC)NC(C)=O)C(N)=O (stereo not drawn) (Ac-E(OMe)E(OMe)E(OMe)E(OMe)E(OMe)[Phe(4-NO2)]E(OMe)E(OMe)E(OMe)E(OMe)E(OMe)-NH2; configuration not given here) | > 100 µM | – | > 100 µM | > 100 µM | > 100 µM | > 100 µM | – | – | > 100 µM | > 100 µM | – | > 100 µM | > 100 µM | – |
